Results from patent publication US11780821B2, “Inhibitors of fibroblast activation protein” (Praxis Biotech LLC, priority 2017, dated 2023).
Like-named read-outs stand apart in the source and are kept apart here.

Legend:
Format in all cases: biochemical
[1] = molecular target: T1, recombinant human FAPα (rhFAPα) (Homo sapiens, UniProt Q12884); assay: FAPα enzymatic exopeptidase (dipeptidase) activity assay; details: for inhibition at 1 µM: read-out: rhFAPα (% exo inh @ 1 μM)
T1 construct: purchased R&S system (so in the source)
T1 sequence (Q12884 1-760): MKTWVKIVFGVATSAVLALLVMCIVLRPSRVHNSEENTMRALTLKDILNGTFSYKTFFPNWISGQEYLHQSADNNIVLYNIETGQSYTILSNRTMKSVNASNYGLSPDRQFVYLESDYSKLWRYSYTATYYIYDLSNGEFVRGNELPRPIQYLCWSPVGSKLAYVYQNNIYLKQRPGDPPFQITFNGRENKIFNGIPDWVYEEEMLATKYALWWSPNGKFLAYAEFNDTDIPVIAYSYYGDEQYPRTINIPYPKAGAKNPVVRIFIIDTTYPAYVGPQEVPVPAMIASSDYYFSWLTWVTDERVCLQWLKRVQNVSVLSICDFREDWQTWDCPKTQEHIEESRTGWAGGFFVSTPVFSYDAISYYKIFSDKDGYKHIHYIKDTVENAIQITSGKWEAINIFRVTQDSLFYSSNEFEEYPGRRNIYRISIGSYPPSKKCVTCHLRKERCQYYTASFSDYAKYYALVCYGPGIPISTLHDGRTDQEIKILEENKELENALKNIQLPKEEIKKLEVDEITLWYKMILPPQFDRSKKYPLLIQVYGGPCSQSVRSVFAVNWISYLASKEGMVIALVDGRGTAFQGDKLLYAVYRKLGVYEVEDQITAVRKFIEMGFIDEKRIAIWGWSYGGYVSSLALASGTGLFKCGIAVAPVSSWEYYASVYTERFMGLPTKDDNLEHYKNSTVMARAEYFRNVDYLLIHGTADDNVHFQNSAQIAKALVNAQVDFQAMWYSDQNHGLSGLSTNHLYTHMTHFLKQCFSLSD

[2] = molecular target: T2, recombinant human DPP9 (rhDPP9) (Homo sapiens, UniProt Q86TI2); assay: DPP9 enzymatic activity assay; details: H-Gly-Pro-AMC substrate
T2 construct: purchased R&S system (so in the source)
T2 sequence (Q86TI2 whole entry): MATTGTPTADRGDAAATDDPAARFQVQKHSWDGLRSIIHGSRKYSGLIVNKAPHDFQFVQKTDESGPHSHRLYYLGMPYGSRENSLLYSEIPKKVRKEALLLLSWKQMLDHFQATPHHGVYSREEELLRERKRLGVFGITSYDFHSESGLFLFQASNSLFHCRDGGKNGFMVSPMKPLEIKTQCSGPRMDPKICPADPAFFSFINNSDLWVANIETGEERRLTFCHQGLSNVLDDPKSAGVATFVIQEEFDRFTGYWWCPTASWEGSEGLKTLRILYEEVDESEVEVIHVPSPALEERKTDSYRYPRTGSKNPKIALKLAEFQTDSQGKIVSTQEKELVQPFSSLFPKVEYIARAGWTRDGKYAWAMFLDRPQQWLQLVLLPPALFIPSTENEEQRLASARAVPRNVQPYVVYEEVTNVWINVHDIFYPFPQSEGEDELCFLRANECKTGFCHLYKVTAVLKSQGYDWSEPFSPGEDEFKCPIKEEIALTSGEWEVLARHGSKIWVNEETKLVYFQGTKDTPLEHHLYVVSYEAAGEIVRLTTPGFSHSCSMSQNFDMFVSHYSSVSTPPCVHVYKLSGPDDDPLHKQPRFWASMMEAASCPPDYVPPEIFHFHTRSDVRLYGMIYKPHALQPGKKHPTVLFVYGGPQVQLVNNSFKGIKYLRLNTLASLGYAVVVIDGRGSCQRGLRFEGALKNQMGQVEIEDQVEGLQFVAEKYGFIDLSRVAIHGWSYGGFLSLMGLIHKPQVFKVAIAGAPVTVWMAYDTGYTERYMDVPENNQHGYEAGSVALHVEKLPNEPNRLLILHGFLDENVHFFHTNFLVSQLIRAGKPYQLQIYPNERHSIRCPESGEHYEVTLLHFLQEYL
Protocol: (§1) 7-Amino-4-Methylcoumarin (AMC) release was detected by measuring fluorescence at Ex/Em 380/460 nm using a Multifunction Microplate Reader (Synergy 4, Biotek). All measurements were carried out in triplicate.

[3] = molecular target: T3, recombinant human PREP (rhPREP) (Homo sapiens, UniProt P48147); assay: PREP enzymatic activity assay; details: Z-Gly-Pro-AMC substrate
T3 sequence (P48147 1-710): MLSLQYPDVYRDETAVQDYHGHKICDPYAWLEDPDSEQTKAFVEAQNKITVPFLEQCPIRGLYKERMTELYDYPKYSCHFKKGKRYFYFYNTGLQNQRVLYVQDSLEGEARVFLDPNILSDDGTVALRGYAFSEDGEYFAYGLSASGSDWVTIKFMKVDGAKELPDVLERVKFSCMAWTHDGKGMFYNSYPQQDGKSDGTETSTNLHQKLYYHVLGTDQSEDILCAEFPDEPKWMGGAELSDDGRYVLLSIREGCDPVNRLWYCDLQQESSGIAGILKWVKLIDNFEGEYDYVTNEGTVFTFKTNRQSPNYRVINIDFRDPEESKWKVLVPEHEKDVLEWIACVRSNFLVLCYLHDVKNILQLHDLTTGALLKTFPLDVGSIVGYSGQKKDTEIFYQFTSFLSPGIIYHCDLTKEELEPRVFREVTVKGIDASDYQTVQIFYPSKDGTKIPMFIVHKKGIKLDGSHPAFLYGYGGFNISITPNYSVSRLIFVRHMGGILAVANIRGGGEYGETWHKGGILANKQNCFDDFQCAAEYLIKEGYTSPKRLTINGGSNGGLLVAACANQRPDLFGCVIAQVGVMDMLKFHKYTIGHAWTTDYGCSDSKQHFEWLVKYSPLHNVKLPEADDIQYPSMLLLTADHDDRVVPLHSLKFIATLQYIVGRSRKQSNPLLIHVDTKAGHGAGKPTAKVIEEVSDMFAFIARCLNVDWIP
Protocol: as §1

[4] = molecular target: T4, circulating FAPα from human plasma (Homo sapiens, UniProt Q12884); assay: Ex vivo inhibition of circulating FAPα activity from human plasma
T4 construct: from tissue; host or cells: human plasma (EDTA-K2)
T4 sequence (Q12884 24-760 limits assumed): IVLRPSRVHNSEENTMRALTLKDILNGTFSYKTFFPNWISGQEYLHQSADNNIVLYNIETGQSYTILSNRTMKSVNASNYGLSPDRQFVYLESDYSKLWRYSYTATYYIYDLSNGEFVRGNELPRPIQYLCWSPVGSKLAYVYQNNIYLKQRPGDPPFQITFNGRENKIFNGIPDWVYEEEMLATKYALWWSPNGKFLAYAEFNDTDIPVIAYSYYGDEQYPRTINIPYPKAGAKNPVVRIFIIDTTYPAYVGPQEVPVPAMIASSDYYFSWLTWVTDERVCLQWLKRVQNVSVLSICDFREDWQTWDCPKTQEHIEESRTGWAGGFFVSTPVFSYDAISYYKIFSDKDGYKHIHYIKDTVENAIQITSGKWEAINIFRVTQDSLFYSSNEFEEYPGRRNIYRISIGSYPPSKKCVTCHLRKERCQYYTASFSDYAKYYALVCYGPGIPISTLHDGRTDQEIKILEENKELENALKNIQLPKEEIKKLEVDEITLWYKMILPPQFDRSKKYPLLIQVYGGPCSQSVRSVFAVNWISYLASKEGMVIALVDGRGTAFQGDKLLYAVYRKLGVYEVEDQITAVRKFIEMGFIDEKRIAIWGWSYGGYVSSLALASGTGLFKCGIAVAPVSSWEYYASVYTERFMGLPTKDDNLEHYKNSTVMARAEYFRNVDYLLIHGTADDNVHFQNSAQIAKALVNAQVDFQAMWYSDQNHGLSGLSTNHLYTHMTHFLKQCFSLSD
Protocol: Human blood was obtained from healthy young volunteers. Blood samples were collected in tubes coated with EDTA-K2 by venipuncture method, mixed gently, then kept on ice and centrifuged at 2,500×g for 15 minutes at 4° C. After plasma separation, samples were stored at −80° C. in aliquots of 300 μL. […] Exemplary compounds were allowed to interact with the enzyme for 15 minutes at 37° C. After pre-incubation, 50 μl of 200 μM PRXS-AMC substrate were added to the all mixtures. All reactions were carried out for 1 h at 37° C. protected from light. AMC release was detected measuring fluorescence at an excitation/emission wavelength of 380/460 nm using a Multifunction Microplate Reader. All measurements were carried out as single point.

[5] = molecular target: T5, recombinant human DPPIV (rhDPPIV) (Homo sapiens, UniProt P27487); assay: DPPIV enzymatic activity assay; details: H-Gly-Pro-pNA substrate
T5 construct: purchased R&S system (so in the source)
T5 sequence (P27487 whole entry): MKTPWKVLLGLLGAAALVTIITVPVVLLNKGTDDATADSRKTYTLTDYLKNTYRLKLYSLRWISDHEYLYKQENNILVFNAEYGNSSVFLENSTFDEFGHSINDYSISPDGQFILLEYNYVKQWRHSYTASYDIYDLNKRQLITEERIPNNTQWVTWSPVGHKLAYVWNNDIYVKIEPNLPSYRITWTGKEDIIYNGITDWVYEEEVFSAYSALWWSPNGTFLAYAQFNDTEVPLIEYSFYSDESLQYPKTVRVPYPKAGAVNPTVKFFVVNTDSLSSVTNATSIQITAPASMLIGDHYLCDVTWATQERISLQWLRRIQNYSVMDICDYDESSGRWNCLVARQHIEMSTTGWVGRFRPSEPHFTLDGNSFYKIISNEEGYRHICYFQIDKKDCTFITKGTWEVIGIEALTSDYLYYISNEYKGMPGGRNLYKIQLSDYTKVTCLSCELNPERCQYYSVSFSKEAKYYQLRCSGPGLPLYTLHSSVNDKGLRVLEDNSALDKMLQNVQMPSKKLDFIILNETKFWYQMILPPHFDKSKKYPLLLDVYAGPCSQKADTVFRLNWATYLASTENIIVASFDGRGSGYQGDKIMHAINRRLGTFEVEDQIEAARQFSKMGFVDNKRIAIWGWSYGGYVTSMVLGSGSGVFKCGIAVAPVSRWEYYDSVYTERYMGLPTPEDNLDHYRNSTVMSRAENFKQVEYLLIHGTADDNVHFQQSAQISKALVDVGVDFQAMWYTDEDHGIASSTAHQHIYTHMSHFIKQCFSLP

[6] = Table 2, exopeptidase, Z-Gly-Pro-AMC, read-out: rhFAPα (exo IC50)
[7] = Table 3, exopeptidase, read-out: rhFAPα (exo IC50)
[8] = human plasma, PRXS-AMC substrate, read-out: FAPα activity in human plasma (PRXS-AMC) IC50
[9] = 1 μM test compound, Z-Gly-Pro-AMC substrate

N#C[C@@H]1CC(F)(F)CN1C(=O)CNC(=O)c1ccncc1-c1ccccc1 [Compound 13, (S)—N-(2-(2-cyano-4,4-difluoropyrrolidin-1-yl)-2-oxoethyl)-3-phenylisonicotinamide]
IC50 [1, 6]: < 1 µM
IC50 [1, 7]: < 1 µM
inhibition at 1 µM [1]: > 50%
IC50 [2]: 1 to 10 µM
IC50 [3]: > 10 µM
IC50 [4, 8]: < 1 µM
IC50 [5]: > 10 µM

N#C[C@@H]1CC(F)(F)CN1C(=O)CNC(=O)c1c[nH]c(=O)c(-c2ccccc2)c1 [Compound 14, (S)—N-(2-(2-cyano-4,4-difluoropyrrolidin-1-yl)-2-oxoethyl)-6-oxo-5-phenyl-1,6-dihydropyridine-3-carboxamide]
inhibition at 1 µM [1, 9]: > 50%
IC50 [1, 6]: < 1 µM
IC50 [1, 7]: < 1 µM
IC50 [2]: 1 to 10 µM
IC50 [3]: > 10 µM
IC50 [4, 8]: < 1 µM
IC50 [5]: > 10 µM

N#C[C@@H]1CC(F)(F)CN1C(=O)CNC(=O)c1ccncc1C1CC1 [Compound 24, (S)—N-(2-(2-cyano-4,4-difluoropyrrolidin-1-yl)-2-oxoethyl)-3-cyclopropylisonicotinamide]
IC50 [1, 6]: < 1 µM
IC50 [1, 7]: < 1 µM
inhibition at 1 µM [1]: > 50%
IC50 [2]: 1 to 10 µM
IC50 [3]: 1 to 10 µM
IC50 [4, 8]: < 1 µM
IC50 [5]: > 10 µM

N#C[C@@H]1CC(F)(F)CN1C(=O)CNC(=O)c1c[nH]c(=O)c2ccc(F)cc12 [Compound 26, (S)—N-(2-(2-cyano-4,4-difluoropyrrolidin-1-yl)-2-oxoethyl)-6-fluoro-1-oxo-1,2-dihydroisoquinoline-4-carboxamide]
inhibition at 1 µM [1, 9]: > 50%
IC50 [1, 6]: < 1 µM
IC50 [1, 7]: < 1 µM
IC50 [2]: 1 to 10 µM
IC50 [3]: 1 to 10 µM
IC50 [4, 8]: < 1 µM
IC50 [5]: 1 to 10 µM

C=Cc1cnccc1C(=O)NCC(=O)N1CC(F)(F)C[C@H]1C#N [Compound 40, (S)—N-(2-(2-cyano-4,4-difluoropyrrolidin-1-yl)-2-oxoethyl)-3-vinylisonicotinamide]
inhibition at 1 µM [1, 9]: > 50%
IC50 [1, 6]: < 1 µM
IC50 [1, 7]: < 1 µM
IC50 [2]: > 10 µM
IC50 [3]: 1 to 10 µM
IC50 [4, 8]: < 1 µM
IC50 [5]: > 10 µM

N#C[C@@H]1CC(F)(F)CN1C(=O)CNC(=O)c1ccncc1-c1cc(F)cc(F)c1 [Compound 47, (S)—N-(2-(2-cyano-4,4-difluoropyrrolidin-1-yl)-2-oxoethyl)-3-(3,5-difluorophenyl)isonicotinamide]
IC50 [1]: < 1 µM
inhibition at 1 µM [1]: > 50%
IC50 ([1]; read-out: rhFAPα (exo IC50), Table 3, exopeptidase): < 1 µM
IC50 [2]: > 10 µM
IC50 [3]: > 10 µM
IC50 [4]: < 1 µM
IC50 [5]: > 10 µM

N#C[C@@H]1CC(F)(F)CN1C(=O)CNC(=O)c1ccncc1Cc1ccccc1 [Compound 50, (S)-3-benzyl-N-(2-(2-cyano-4,4-difluoropyrrolidin-1-yl)-2-oxoethyl)isonicotinamide]
inhibition at 1 µM [1, 9]: > 50%
IC50 [1, 6]: < 1 µM
IC50 [1, 7]: < 1 µM
IC50 [2]: < 1 µM
IC50 [3]: 1 to 10 µM
IC50 [4, 8]: < 1 µM
IC50 [5]: > 10 µM

N#C[C@@H]1CC(F)(F)CN1C(=O)CNC(=O)c1ccncc1-c1ccc(F)cc1 [Compound 52, (S)—N-(2-(2-cyano-4,4-difluoropyrrolidin-1-yl)-2-oxoethyl)-3-(4-fluorophenyl)isonicotinamide]
IC50 [1, 6]: < 1 µM
IC50 [1, 7]: < 1 µM
inhibition at 1 µM [1]: > 50%
IC50 [2]: > 10 µM
IC50 [3]: > 10 µM
IC50 [4, 8]: < 1 µM
IC50 [5]: > 10 µM

C=C(c1ccccc1)c1cnccc1C(=O)NCC(=O)N1CC(F)(F)C[C@H]1C#N [Compound 122, (S)—N-(2-(2-cyano-4,4-difluoropyrrolidin-1-yl)-2-oxoethyl)-3-(1-phenylvinyl)isonicotinamide]
IC50 [1, 6]: < 1 µM
IC50 [1, 7]: < 1 µM
inhibition at 1 µM [1]: > 50%
IC50 [2]: > 10 µM
IC50 [3]: > 10 µM
IC50 [5]: > 10 µM
